In one assay the test system is HEK-293 cells. In words: HEK-293 cytotoxicity detection (CellTiter-Glo). The format is cell-based. To be noted: HEK-293 cells, 72 h incubation, CellTiter-Glo luminescence, IC50 of cell proliferation inhibition, read-out: HEK293. The procedure: HEK-293 cells were treated with compounds diluted in 0.2% DMSO, dilution was done according to the following protocol: (1) making 500× stock solution in DMSO from 5 mM by 4-fold dilution, total 8 doses were included; (2) making 2× solution in cell culture medium by transferring 0.5 ul 500× stock solution into 125 μl medium; (3) adding 50 μl of 2× solution to cells for incubation of 72 h.
25 μl of the CellTiter-Glo®Reagent [(Promega) -Cat No. G7572] was added to each well in the 96-well plate. The contents were mixed for 2 minutes on an orbital shaker to induce cell lysis. The plate was then allowed to incubate at room temperature for 10 minutes to stabilize luminescent signal. Luminescence was recorded on BMG PheraStar with luminescence protocol.
The IC50 value of a compound can be obtained by fitting the following equation
(§1) Wherein, X and Y are known values, and IC50, Hillslope, Top and Bottom are the parameters obtained by fitting with software. Y is the inhibition percentage (calculated from the equation), X is the concentration of the compound; IC50 is the concentration of the compound when the 50% inhibition is reached. The smaller the IC50 value is, the stronger the inhibitory ability of the compound is. Vice versa, the higher the IC50 value is, the weaker the ability the inhibitory ability of the compound is; Hillslope represents the slope of the fitted curve, generally around 1 *; Bottom represents the minimum value of the curve obtained by data fitting, which is generally 0%±20%; Top represents the maximum value of the curve obtained by data fitting, which is generally 100%±20%. The experimental data were fitted by calculating and analyzing with Dotmatics data analysis software.
(In ATP-based viability assays light output follows the ATP content of the culture.)

The target in the next assay is T1, BTK (Homo sapiens, UniProt Q06187).
T1 construct: High control=Cell group with added DMSO and without compound, indicating microplate readings without BTK degradation; endogenous in cells; host or cells: TMD-8
In words: BTK degradation in TMD-8 cells (HTRF assay). The assay is classed as cell-based. To be noted: 6 h treatment, IC50 (DC50) of BTK degradation. The procedure: TMD-8 cells were treated with compounds diluted in 0.2% DMSO, dilution was done according to the following protocol: (1) making 500× stock solution in DMSO from 1 mM by 6-fold dilution, total 8 doses were included; (2) making 2× solution in cell culture medium by transferring 0.5 μl 500× stock solution into 125 μl medium; (3) adding 15 μl of 2× solution to cells for incubation of 6 h.
After 6 h treatment, 10 μl 4× lysis buffer was added to each well; the plate was sealed and incubated for 30 min at room temperature on a plate shaker; Once the cells was lysed, 16 μL of cell lysate were transferred to a PE 384-well HTRF detection plate; 4 μL of pre-mixed HTRF antibodies were added to each well; the plate was covered with a plate sealer, and then spinned at 1000 rpm for 1 min, then incubated overnight at room temperature; the results were read on BMG PheraStar with HTRF protocol (337 nm-665 nm-620 nm).
The IC50 (DC50) value of a compound can be obtained by fitting the following equation
as §1, with “wherein,” for “Wherein,”
(In general: In TR-FRET formats the signal depends on donor and acceptor labels being close together.)

Results on twelve compounds are retold here after patent US20240366770A1, “DEGRADATION OF BRUTON'S TYROSINE KINASE (BTK) BY CONJUGATION OF BTK INHIBITORS WITH E3 LIGASE LIGAND AND METHODS OF USE” (BeiGene Switzerland GmbH, priority 2021, published 2024).

Read-outs that look alike come from different tables or passages of the source.

T1 sequence (Q06187 whole entry): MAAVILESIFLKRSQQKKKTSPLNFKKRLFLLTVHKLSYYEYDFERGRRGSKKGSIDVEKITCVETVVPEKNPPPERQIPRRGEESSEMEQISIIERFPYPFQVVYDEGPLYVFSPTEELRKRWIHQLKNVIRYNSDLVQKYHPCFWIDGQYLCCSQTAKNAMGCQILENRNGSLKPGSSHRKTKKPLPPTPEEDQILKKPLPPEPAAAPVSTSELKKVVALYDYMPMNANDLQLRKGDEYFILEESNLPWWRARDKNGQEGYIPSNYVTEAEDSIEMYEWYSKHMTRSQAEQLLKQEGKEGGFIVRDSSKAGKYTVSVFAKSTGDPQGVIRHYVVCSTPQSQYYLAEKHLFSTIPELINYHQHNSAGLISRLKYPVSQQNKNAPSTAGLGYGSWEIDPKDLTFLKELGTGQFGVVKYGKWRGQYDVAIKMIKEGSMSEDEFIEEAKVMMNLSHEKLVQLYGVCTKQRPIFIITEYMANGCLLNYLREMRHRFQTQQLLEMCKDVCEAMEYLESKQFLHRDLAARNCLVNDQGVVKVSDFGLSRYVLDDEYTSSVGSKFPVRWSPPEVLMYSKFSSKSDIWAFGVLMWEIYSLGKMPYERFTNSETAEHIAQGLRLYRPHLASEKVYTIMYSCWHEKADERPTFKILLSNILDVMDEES

In the case of `Cc1c([C@@H](C)NC(=O)c2noc(C(C)(C)C)n2)ccc(-c2ncnc3[nH]c4cc(N5CCN(Cc6ccc7c(c6)n(C6CCC(=O)NC6=O)c(=O)n7C)CC5)ccc4c23)c1F` (stereo partly drawn) [Example 78, 5-(tert-butyl)-N-((1R)-1-(4-(7-(4-((3-(2,6-dioxopiperidin-3-yl)-1-methyl-2-oxo-2,3-dihydro-1H-benzo[d]imidazol-5-yl)methyl)piperazin-1-yl)-9H-pyrimido[4,5-b]indol-4-yl)-3-fluoro-2-methylphenyl)ethyl)-1,2,4-oxadiazole-3-carboxamide], the IC50 in the assay on HEK-293 cells (Homo sapiens) was more than 10000 nM. For the same compound, the DC50 (as a rule, the concentration giving 50% degradation) on BTK is more than 2000 nM.
The corresponding values for `Cc1cc(-c2ncnc3[nH]c4cc(N5CCN([C@H]6C[C@@H](c7ccc(N[C@@H]8CCC(=O)NC8=O)cc7)C6)CC5)ccc4c23)ccc1[C@@H](C)NC(=O)c1nc(C2(C)CC2)no1` [Example 118, N—((R)-1-(4-(7-(4-((1S,3s)-3-(4-(((R)-2,6-dioxopiperidin-3-yl)amino)phenyl)cyclobutyl)piperazin-1-yl)-9H-pyrimido[4,5-b]indol-4-yl)-2-methylphenyl)ethyl)-3-(1-methylcyclopropyl)-1,2,4-oxadiazole-5-carboxamide] are more than 10000 nM and 1.73 nM.
The matching figures for `COc1cc2c(cc1N1CCN(C3CCN(c4cccc(C5CCC(=O)NC5=O)c4)C3)CC1)[nH]c1ncnc(-c3ccc([C@@H](C)NC(=O)c4noc(C(C)(C)C)n4)c(C)c3F)c12` (stereo partly drawn) [Example 61, 5-(tert-butyl)-N-((1R)-1-(4-(7-(4-(1-(3-(2,6-dioxopiperidin-3-yl)phenyl)pyrrolidin-3-yl)piperazin-1-yl)-6-methoxy-9H-pyrimido[4,5-b]indol-4-yl)-3-fluoro-2-methylphenyl)ethyl)-1,2,4-oxadiazole-3-carboxamide]: more than 10000 nM and 5.52 nM.
For `Cc1cc(-c2ncnc3[nH]c4cc(N5CCN(C6CC(c7ccc([C@H]8CCC(=O)NC8=O)cc7)C6)CC5)ccc4c23)c(F)cc1[C@@H](C)NC(=O)c1nc(C(C)(C)C)no1` (stereo partly drawn) [Example 26, 3-(tert-butyl)-N—((R)-1-(4-(7-(4-(3-(4-((R)-2,6-dioxopiperidin-3-yl)phenyl)cyclobutyl)piperazin-1-yl)-9H-pyrimido[4,5-b]indol-4-yl)-5-fluoro-2-methylphenyl)ethyl)-1,2,4-oxadiazole-5-carboxamide], the IC50 in the assay with HEK-293 cells (Homo sapiens) is more than 10000 nM. Further, on BTK, the DC50 amounted to 2.2 nM.
The matching figures for `Cc1cc(-c2ncnc3[nH]c4cc(C5CCN(C6CC(c7ccc([C@H]8CCC(=O)NC8=O)cc7)C6)C5)ccc4c23)ccc1[C@@H](C)NC(=O)c1nc(C(C)(C)C)no1` (stereo partly drawn) [Example 20, 3-(tert-butyl)-N-((1R)-1-(4-(7-(1-(3-(4-((R)-2,6-dioxopiperidin-3-yl)phenyl)cyclobutyl)pyrrolidin-3-yl)-9H-pyrimido[4,5-b]indol-4-yl)-2-methylphenyl)ethyl)-1,2,4-oxadiazole-5-carboxamide]: 3520 nM and 1.3 nM.
The matching figures for `Cc1cc(-c2ncnc3[nH]c4cc(N5CCC6(CC5)CCN(C5CC(c7ccc(NC8CCC(=O)NC8=O)cc7)C5)C6)ccc4c23)ccc1[C@@H](C)NC(=O)c1nc(C(C)(C)C)no1` (stereo partly drawn) [Example 103, 3-(tert-butyl)-N-((1R)-1-(4-(7-(2-(3-(4-((2,6-dioxopiperidin-3-yl)amino)phenyl)cyclobutyl)-2,8-diazaspiro[4.5]decan-8-yl)-9H-pyrimido[4,5-b]indol-4-yl)-2-methylphenyl)ethyl)-1,2,4-oxadiazole-5-carboxamide]: 1060 nM and 3.05 nM.
On to `COc1cc2c(cc1N1CCN(C3CC(c4ccc([C@H]5CCC(=O)NC5=O)cc4)C3)CC1)[nH]c1ncnc(-c3ccc([C@@H](C)NC(=O)c4nc(C(C)(C)C)no4)c(C)c3F)c12` (stereo partly drawn) [Example 56, 3-(tert-butyl)-N—((R)-1-(4-(7-(4-(3-(4-((R)-2,6-dioxopiperidin-3-yl)phenyl)cyclobutyl)piperazin-1-yl)-6-methoxy-9H-pyrimido[4,5-b]indol-4-yl)-3-fluoro-2-methylphenyl)ethyl)-1,2,4-oxadiazole-5-carboxamide], for which the IC50 in the assay on HEK-293 cells (Homo sapiens) was more than 10000 nM. Moreover, the half-maximal degradation concentration (DC50) on BTK worked out at 10.3 nM.
Turning to `Cc1cc(-c2ncnc3[nH]c4cc(N5CCC6(CCN(CC7CCN(c8ccc(N9CCC(=O)NC9=O)cc8)CC7)CC6)CC5)ccc4c23)ccc1[C@@H](C)NC(=O)c1nc(C(C)(C)C)no1` [Example 114, (R)-3-(tert-butyl)-N-(1-(4-(7-(9-((1-(4-(2,4-dioxotetrahydropyrimidin-1(2H)-yl)phenyl)piperidin-4-yl)methyl)-3,9-diazaspiro[5.5]undecan-3-yl)-9H-pyrimido[4,5-b]indol-4-yl)-2-methylphenyl)ethyl)-1,2,4-oxadiazole-5-carboxamide], the IC50 in the assay with HEK-293 cells (Homo sapiens) amounted to 923 nM. This compound returned a DC50 on BTK of 1.89 nM.
Turning to `Cc1cc(-c2ncnc3[nH]c4cc(N5CCN(C6CC(c7ccc([C@@H]8CCC(=O)NC8=O)cc7)C6)CC5)ccc4c23)ccc1[C@@H](C)NC(=O)c1nc(C2(C)CC2)no1` (stereo partly drawn) [Example 68, N—((R)-1-(4-(7-(4-(3-(4-((S)-2,6-dioxopiperidin-3-yl)phenyl)cyclobutyl)piperazin-1-yl)-9H-pyrimido[4,5-b]indol-4-yl)-2-methylphenyl)ethyl)-3-(1-methylcyclopropyl)-1,2,4-oxadiazole-5-carboxamide], the IC50 with HEK-293 cells was more than 10000 nM. This compound also displayed a DC50 on BTK of 1.6 nM.
Turning to `COc1cc2c(cc1N1CCN(C3CCC(c4ccc(C5CCC(=O)NC5=O)cc4)CC3)CC1)[nH]c1ncnc(-c3ccc([C@@H](C)NC(=O)c4nc(C(C)(C)C)no4)c(C)c3)c12` (stereo partly drawn) [Example 48, 3-(tert-butyl)-N-((1R)-1-(4-(7-(4-(4-(4-(2,6-dioxopiperidin-3-yl)phenyl)cyclohexyl)piperazin-1-yl)-6-methoxy-9H-pyrimido[4,5-b]indol-4-yl)-2-methylphenyl)ethyl)-1,2,4-oxadiazole-5-carboxamide], the IC50 with HEK-293 cells (Homo sapiens) is more than 10000 nM. This compound also gave a DC50 on BTK of 0.874 nM.
Turning to `Cc1cc(-c2ncnc3[nH]c4cc(CCN5CCN(c6ccc(N7CCC(=O)NC7=O)cc6)CC5)ccc4c23)ccc1[C@@H](C)NC(=O)c1nc(C(C)(C)C)no1` [Example 106, (R)-3-(tert-butyl)-N-(1-(4-(7-(2-(4-(4-(2,4-dioxotetrahydropyrimidin-1(2H)-yl)phenyl)piperazin-1-yl)ethyl)-9H-pyrimido[4,5-b]indol-4-yl)-2-methylphenyl)ethyl)-1,2,4-oxadiazole-5-carboxamide], in the assay on HEK-293 cells (Homo sapiens), the IC50 is more than 10000 nM. This compound also came in with a DC50 at BTK of 0.324 nM.
The matching figures for `Cc1cc(-c2ncnc3[nH]c4cc(C5=CCN(CC6CCN(c7ccc(N8CCC(=O)NC8=O)cc7)CC6)C5)ccc4c23)ccc1[C@@H](C)NC(=O)c1nc(C(C)(C)C)no1` [Example 10, (R)-3-(tert-butyl)-N-(1-(4-(7-(1-((1-(4-(2,4-dioxotetrahydropyrimidin-1(2H)-yl)phenyl)piperidin-4-yl)methyl)-2,5-dihydro-1H-pyrrol-3-yl)-9H-pyrimido[4,5-b]indol-4-yl)-2-methylphenyl)ethyl)-1,2,4-oxadiazole-5-carboxamide]: more than 10000 nM and 1.51 nM.
